According to ChEMBL document CHEMBL1201862, “PubChem BioAssay data set” (2004):
Activity calls are given as the source filed them.

Legend:
[1] = target: T1, Oxysterols receptor LXR-beta (Homo sapiens, UniProt P55055); type: functional, cell-based;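 note: Cell-based luminescence dose-response assay of agonist activity at LXR, run as a confirmatory counterscreen to a daf-12 agonist screen; HEK293 cells with Gal4-LXR fusion and GAL4-driven luciferase reporter; agonist potency from rising luciferase signal of a Gal4-LXR reporter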
T1 sequence (P55055 whole entry): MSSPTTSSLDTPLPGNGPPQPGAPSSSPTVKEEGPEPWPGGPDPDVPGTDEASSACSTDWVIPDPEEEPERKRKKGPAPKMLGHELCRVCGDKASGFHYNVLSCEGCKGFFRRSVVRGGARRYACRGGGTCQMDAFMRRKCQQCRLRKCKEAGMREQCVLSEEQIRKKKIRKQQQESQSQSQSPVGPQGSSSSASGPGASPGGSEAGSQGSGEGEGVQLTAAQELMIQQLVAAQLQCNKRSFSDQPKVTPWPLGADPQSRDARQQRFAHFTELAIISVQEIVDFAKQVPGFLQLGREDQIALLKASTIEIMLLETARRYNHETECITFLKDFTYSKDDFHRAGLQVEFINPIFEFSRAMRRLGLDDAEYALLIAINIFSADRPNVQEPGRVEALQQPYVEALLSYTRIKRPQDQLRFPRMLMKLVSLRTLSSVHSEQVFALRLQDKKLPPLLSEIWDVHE

[2] = cells
[3] = target: Kallikrein-7 (Homo sapiens, UniProt P49862); test: Fluorescence Intensity-based biochemical primary high throughput dose response assay to identify activators of kallikrein-7 (K7) zymogen.
[4] = target: 5-hydroxytryptamine receptor 2A (Mus musculus, UniProt P35363); type: functional, cell-based;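 note: CHO-K1 cells with tagged receptor and beta-arrestin; agonist potency measured as compound-induced activation of the receptor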
5-hydroxytryptamine receptor 2A, sequence (P35363 whole entry): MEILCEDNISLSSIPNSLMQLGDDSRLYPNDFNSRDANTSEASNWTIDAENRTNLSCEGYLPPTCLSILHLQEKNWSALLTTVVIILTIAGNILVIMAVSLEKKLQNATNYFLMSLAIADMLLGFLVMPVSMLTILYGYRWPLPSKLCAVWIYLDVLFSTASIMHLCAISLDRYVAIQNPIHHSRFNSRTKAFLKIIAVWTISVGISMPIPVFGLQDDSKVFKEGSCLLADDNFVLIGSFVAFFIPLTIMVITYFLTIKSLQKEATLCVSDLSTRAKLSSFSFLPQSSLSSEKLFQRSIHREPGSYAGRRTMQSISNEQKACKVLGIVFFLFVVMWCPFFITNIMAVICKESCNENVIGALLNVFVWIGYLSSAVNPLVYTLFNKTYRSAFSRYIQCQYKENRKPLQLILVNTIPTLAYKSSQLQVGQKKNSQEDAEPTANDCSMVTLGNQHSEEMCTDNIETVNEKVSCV

[5] = target: T2, Corticotropin-releasing factor receptor 2/Corticotropin-releasing factor-binding protein (Homo sapiens, UniProt P24387+Q13324); test: activators of CRF receptor 2 with binding protein – uHTS hits, confirmation (AID 602473); type: functional; conditions: read-out: EC50_Mean
T2 sequence (Q13324 whole entry): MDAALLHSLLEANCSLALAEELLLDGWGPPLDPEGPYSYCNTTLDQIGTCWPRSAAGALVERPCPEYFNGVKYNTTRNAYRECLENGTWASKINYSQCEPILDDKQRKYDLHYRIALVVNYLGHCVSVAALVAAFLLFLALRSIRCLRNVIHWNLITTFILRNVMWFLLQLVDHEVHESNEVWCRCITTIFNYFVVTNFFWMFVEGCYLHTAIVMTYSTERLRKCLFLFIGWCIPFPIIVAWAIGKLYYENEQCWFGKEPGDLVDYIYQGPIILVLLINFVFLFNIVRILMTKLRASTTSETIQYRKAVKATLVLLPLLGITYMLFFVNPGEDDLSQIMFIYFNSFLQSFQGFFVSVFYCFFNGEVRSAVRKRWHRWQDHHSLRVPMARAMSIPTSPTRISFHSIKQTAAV
T2 sequence (P24387 whole entry): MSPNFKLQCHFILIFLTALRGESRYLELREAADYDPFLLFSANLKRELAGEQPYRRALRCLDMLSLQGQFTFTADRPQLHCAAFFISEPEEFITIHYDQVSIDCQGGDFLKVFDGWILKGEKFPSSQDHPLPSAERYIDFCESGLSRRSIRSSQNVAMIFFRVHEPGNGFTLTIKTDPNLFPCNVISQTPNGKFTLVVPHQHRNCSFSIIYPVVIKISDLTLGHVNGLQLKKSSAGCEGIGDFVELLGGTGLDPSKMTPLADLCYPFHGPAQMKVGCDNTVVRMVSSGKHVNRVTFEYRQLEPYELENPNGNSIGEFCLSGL

[6] = target: Mu-type opioid receptor (Homo sapiens, UniProt P35372); type: functional, cell-based;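 note: U2OS cells with beta-arrestin recruitment to OPRM1 by beta-gal complementation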
[7] = target: T2, Corticotropin-releasing factor receptor 2/Corticotropin-releasing factor-binding protein; test: Dose Response confirmation of uHTS hits for small molecule antagonists of the CRF-binding protein and CRF-R2 receptor complex.; type: functional; conditions: read-out: IC50_Mean
[8] = target: SWI/SNF-related matrix-associated actin-dependent regulator of chromatin subfamily A member 2 (Homo sapiens, UniProt P51531); test: Luminescence-based cell-based high throughput dose response assay to identify activators of the function of SWI/SNF related, matrix associated, actin dependent regulator of chromatin, subfamily a, member 2 (SMARCA2, BRM).; type: functional
SWI/SNF-related matrix-associated actin-dependent regulator of chromatin subfamily A member 2, sequence (P51531 whole entry): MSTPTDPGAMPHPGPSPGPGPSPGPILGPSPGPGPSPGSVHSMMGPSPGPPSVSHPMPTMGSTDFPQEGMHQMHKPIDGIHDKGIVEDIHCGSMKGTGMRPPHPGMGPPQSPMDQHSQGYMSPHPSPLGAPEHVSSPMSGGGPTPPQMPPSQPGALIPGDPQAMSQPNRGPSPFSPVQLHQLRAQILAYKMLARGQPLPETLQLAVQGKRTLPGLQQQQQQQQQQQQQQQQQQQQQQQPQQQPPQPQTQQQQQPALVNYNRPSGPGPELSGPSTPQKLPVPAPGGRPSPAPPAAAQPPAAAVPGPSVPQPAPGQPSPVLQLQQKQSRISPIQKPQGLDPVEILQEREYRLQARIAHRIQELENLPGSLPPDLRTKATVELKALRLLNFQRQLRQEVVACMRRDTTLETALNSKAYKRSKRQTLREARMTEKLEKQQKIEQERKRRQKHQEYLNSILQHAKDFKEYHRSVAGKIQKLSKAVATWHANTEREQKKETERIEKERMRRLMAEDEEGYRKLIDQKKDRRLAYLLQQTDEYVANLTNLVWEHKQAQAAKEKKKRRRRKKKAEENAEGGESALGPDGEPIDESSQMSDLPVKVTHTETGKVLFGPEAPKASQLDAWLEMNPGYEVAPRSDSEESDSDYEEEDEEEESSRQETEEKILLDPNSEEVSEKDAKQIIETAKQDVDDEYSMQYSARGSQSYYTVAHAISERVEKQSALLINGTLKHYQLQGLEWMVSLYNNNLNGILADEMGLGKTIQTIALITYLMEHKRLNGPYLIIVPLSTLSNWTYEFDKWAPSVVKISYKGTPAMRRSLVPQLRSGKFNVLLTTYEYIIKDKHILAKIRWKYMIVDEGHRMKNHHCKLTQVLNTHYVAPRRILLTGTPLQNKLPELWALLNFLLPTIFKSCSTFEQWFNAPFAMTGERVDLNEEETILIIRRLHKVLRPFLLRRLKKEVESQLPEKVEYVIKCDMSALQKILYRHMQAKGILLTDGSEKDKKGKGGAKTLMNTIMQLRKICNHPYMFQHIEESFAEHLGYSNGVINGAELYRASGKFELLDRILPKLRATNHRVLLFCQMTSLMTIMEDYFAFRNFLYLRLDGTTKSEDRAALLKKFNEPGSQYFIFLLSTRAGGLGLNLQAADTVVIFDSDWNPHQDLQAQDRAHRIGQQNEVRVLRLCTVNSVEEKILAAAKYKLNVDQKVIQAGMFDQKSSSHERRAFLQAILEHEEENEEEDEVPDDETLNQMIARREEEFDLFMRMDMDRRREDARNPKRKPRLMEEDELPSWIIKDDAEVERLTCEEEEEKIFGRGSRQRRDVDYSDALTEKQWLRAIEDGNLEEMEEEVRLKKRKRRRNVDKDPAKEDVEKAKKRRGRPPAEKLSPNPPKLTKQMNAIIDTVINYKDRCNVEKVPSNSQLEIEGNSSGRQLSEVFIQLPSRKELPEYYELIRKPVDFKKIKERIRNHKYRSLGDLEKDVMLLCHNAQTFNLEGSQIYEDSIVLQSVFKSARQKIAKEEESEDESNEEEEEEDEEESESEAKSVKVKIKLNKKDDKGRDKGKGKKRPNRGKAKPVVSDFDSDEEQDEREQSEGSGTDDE

[9] = Counterscreen for activators of the function of SWI/SNF related, matrix associated, actin dependent regulator of chromatin, subfamily a, member 2 (SMARCA2, BRM): Luminescence-based cell-based high throughput dose response assay to identify non-selective compounds using the VP16 reporter assay.; type: functional
[10] = HIV-1 AD8 envelope cell-cell fusion blockers – cherry-pick, dose response (AID 652062); type: functional, cell-based;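 note: luciferase signal from cell-cell fusion driven by HIV-1 clade B AD8 Env; potency is for inhibitors of fusion seen as a drop in luminescence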
[11] = off-target signal loss in HeLa-CEM21 co-culture – HeLa F-luc CTL cells, cherry-picked, counter-screen for HIV-1 Env fusion inhibitor project, dose response (AID 652040); type: functional, cell-based;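 note: potency for signal decrease marking cytotoxic or nonspecific inhibition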
[12] = blockers of HIV-1 envelope-mediated cell-cell fusion – cherry-pick, dose response (AID 652057); type: functional, cell-based
[13] = viability loss in CEM21 cells – cell-based, CellTiter-Glo luminescence, cherry-picked, cytotoxicity control for viral fusion inhibitor project, dose response (AID 652042); type: functional;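 note: potency for signal decrease meaning cytotoxicity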
[14] = blockers of HIV-1 ZM109 envelope-driven cell-cell fusion – HeLa effector, CEM target cells, luciferase, cherry-pick, dose response (AID 652058); type: functional, cell-based;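 note: luciferase signal from HIV-1 Env mediated cell-cell fusion of effector and target cells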
[15] = target: T3, Sentrin-specific protease 8 (Homo sapiens, UniProt Q96LD8); type: functional
T3 sequence (Q96LD8 whole entry): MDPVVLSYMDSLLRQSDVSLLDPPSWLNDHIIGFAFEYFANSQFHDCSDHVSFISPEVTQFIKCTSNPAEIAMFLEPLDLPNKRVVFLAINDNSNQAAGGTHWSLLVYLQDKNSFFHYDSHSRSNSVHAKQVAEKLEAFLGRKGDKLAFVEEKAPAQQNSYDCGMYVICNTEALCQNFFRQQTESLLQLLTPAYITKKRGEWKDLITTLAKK

[16] = target: T3, Sentrin-specific protease 8; type: functional; remark: listed apart in the source
[17] = target: Tyrosine-protein phosphatase non-receptor type 5 (Homo sapiens, UniProt P54829); test: PTPN5 enzyme inhibition – biochemical, fluorescence intensity, uHTS hits, confirmation (AID 602372); type: functional; conditions: read-out: IC50_Mean
Tyrosine-protein phosphatase non-receptor type 5, sequence (P54829 whole entry): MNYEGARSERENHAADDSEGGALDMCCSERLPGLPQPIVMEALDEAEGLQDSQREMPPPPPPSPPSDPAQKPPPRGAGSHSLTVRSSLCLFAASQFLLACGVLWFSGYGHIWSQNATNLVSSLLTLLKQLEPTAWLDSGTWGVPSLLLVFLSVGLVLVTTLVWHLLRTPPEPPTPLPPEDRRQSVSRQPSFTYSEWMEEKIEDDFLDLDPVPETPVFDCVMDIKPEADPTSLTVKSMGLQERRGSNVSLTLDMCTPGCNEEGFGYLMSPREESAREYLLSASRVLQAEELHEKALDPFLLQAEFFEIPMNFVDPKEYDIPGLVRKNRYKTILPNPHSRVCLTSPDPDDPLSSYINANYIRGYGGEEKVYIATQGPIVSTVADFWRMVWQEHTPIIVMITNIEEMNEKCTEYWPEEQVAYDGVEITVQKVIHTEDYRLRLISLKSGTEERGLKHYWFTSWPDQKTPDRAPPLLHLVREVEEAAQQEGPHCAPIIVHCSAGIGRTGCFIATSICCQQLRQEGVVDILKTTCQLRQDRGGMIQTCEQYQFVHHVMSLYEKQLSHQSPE

[18] = target: T4, Tyrosine-protein phosphatase non-receptor type 22 (Homo sapiens, UniProt Q9Y2R2); test: lymphoid phosphatase LYP inhibitors – biochemical, selectivity assay for STEP inhibitor project, dose response (AID 624241); type: functional
T4 sequence (Q9Y2R2 whole entry): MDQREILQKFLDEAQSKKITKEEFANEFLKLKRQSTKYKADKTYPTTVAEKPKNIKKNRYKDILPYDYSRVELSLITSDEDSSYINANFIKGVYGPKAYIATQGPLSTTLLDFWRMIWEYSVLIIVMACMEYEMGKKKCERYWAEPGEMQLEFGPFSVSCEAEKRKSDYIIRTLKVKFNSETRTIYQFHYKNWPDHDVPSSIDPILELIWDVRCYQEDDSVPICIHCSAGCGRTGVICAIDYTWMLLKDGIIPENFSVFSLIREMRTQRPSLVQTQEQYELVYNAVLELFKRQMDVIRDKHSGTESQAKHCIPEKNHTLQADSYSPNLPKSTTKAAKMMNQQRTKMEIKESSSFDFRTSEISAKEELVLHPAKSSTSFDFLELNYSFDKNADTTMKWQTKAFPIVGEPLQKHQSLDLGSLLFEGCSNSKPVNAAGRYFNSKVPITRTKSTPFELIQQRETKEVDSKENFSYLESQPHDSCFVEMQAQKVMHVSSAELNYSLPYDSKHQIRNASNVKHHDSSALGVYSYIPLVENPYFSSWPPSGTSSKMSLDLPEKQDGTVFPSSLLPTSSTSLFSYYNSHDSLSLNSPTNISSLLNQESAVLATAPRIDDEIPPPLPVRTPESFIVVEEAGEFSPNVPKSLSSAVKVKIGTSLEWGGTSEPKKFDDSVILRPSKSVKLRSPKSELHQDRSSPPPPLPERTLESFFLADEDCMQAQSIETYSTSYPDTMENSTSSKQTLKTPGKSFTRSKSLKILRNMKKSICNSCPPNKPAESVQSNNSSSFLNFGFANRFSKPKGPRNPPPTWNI

[19] = target: Dual specificity protein phosphatase 3 (Homo sapiens, UniProt P51452); test: VHR phosphatase inhibition, dose response, selectivity assay for STEP inhibitor project, biochemical (AID 602374); type: functional; conditions: read-out: IC50_Mean
Dual specificity protein phosphatase 3, sequence (P51452 whole entry): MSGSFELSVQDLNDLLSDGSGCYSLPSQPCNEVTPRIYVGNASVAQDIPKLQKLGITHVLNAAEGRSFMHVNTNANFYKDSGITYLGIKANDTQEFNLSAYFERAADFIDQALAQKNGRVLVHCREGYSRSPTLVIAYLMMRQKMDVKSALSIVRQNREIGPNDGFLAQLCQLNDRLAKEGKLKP

[20] = target: Tyrosine-protein phosphatase non-receptor type 11 (Homo sapiens, UniProt Q06124); test: PTPN11 enzyme inhibitors – biochemical, selectivity assay for STEP inhibitor project, dose response (AID 602367); type: functional; conditions: read-out: IC50_Mean
Tyrosine-protein phosphatase non-receptor type 11, sequence (Q06124 whole entry): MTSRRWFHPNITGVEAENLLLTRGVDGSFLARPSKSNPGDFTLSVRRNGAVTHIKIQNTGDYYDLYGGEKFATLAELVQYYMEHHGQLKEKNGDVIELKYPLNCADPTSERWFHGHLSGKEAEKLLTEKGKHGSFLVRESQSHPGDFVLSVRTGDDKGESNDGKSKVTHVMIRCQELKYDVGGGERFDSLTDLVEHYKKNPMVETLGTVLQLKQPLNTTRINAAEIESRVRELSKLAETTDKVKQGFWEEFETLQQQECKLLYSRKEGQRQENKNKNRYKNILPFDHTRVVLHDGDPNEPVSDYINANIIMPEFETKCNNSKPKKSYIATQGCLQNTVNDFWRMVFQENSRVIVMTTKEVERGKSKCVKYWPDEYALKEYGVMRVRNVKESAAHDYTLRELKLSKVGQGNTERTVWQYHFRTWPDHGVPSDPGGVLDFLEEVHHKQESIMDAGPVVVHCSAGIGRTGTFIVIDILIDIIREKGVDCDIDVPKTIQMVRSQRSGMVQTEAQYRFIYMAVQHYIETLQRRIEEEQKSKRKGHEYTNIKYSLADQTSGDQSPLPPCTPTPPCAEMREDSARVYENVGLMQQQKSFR

[21] = target: Prothrombin (Bos taurus, UniProt P00735); test: thrombin protease inhibitors – biochemical, fluorescence polarization, uHTS hits, dose response (AID 602369); type: functional
[22] = target: 26S proteasome non-ATPase regulatory subunit 14 (Homo sapiens, UniProt O00487); test: inhibition of proteasome subunit RPN11 – biochemical, fluorescence polarization, uHTS hits, confirmation (AID 602368); type: functional
26S proteasome non-ATPase regulatory subunit 14, sequence (O00487 whole entry, the tested form may be a part): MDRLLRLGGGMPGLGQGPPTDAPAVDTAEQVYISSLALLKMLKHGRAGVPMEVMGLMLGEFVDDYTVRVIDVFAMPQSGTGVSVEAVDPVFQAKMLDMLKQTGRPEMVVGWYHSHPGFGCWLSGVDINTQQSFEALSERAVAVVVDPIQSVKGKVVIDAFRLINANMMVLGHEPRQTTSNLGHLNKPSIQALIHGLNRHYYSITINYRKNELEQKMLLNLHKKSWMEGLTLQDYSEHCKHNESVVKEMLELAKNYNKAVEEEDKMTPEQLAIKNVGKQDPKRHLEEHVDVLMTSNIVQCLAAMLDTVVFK

[23] = target: T5, Carboxy-terminal domain RNA polymerase II polypeptide A small phosphatase 1 (Homo sapiens, UniProt Q9GZU7); test: CTDSP1 inhibitors, concentration-response, biochemical, absorbance readout, ultra-high-throughput screen actives (AID 540297); type: functional
T5 sequence (Q9GZU7 whole entry): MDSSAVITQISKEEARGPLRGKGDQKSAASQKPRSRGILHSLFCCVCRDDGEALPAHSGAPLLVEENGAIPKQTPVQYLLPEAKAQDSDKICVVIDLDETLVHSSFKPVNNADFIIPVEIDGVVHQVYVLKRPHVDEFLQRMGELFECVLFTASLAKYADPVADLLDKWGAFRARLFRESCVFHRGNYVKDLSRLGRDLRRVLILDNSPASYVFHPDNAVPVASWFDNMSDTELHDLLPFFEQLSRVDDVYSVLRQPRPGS

[24] = target: 72 kDa type IV collagenase (Homo sapiens, UniProt P08253); test: Dose Response validation of uHTS RPN11 inhibitor hits using a MMP-2 Fluorescence assay.; type: functional
72 kDa type IV collagenase, sequence (P08253 whole entry): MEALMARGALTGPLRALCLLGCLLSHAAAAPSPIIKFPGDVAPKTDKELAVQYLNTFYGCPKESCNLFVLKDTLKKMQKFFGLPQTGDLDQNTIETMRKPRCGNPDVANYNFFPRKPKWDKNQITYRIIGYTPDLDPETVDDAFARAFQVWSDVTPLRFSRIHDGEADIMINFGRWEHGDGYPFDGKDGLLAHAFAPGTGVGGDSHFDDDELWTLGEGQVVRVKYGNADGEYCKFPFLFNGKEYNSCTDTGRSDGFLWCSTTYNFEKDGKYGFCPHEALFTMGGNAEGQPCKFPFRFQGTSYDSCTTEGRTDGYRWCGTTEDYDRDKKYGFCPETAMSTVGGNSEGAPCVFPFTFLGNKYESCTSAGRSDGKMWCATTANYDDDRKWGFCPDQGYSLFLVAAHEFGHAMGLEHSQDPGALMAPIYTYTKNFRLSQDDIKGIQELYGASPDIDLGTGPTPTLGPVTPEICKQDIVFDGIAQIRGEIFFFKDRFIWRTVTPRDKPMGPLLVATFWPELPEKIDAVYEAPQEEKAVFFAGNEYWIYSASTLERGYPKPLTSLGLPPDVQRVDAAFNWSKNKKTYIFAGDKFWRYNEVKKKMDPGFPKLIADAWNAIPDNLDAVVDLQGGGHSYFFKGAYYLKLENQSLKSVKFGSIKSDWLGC

[25] = target: COUP transcription factor 2 (Homo sapiens, UniProt P24468); test: Luminescence-based cell-based high throughput dose response assay to identify inhibitors of COUP-TFII (NR2F2).; type: functional;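 note: HEK293 cells transiently cotransfected with COUP-TFII expression vector and reporter; luciferase reporter luminescence driven by COUP-TFII from the pX2-168 reporter plasmid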
COUP transcription factor 2, sequence (P24468 whole entry): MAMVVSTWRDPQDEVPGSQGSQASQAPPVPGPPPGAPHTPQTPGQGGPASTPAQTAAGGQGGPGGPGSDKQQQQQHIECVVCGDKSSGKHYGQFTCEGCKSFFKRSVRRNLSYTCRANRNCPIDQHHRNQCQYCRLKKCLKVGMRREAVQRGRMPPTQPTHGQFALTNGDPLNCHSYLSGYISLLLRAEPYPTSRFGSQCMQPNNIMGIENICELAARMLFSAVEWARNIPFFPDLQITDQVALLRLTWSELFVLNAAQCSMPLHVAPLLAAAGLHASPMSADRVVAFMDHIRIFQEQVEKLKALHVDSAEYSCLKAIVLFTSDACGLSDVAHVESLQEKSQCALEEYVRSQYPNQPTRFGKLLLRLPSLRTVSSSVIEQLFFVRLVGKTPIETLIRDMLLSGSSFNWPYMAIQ

SMILES: Cc1cc(C(=O)Cn2nnc3ccccc3c2=O)c(C)n1Cc1cccs1
- EC50 [1]: > 67.6 µM (inactive)
- EC50 [2]: > 67.6 µM (inactive)

SMILES: CCCc1nc2c(C)cc(Br)cn2c1Cc1ccc(C)cc1
- EC50 [1]: > 67.5 µM (inactive)
- EC50 [2]: > 67.5 µM (inactive)

SMILES: O=C(NCCCN1CCOCC1)c1cc2nc(-c3ccco3)cc(C(F)(F)F)n2n1
- EC50 [3]: > 69.5 µM (inactive)

SMILES: CC(=O)N1CCC(N2CCCC(C(=O)c3cccc(Cl)c3)C2)CC1 (configuration not stated)
- EC50 [4]: 764 nM (active)
- EC50 [5]: > 53 µM (inactive)
- EC50 [6]: 92.5 µM (inactive)
- IC50 [7]: > 47.1 µM (inactive)

SMILES: Cc1cccc(CSc2ccc(-c3cccs3)nn2)c1
- EC50 [8]: > 91.1 µM (inactive)
- EC50 [9]: > 91.1 µM (inactive)

SMILES: CCOc1cccc(-c2nnc3sc(C4CCCCC4)nn23)c1
- AC50 [10]: 7.17 µM (active)
- AC50 [11]: 46 µM (active)
- AC50 [12]: 5.97 µM (active)
- AC50 [13]: 49.9 µM (active)
- AC50 [14]: 21.4 µM (active)

SMILES: COc1ccc2c(c1)C(=O)N(c1ccccc1OC)C(=O)C2
- IC50 [15]: > 100 µM (inactive)
- IC50 [16]: 15.4 µM (active)

SMILES: O=C(N/N=C/c1cccnc1)c1ccc(NC(=O)c2cccc(Cl)c2)cc1
- IC50 [17]: 16.5 µM (active)
- IC50 [18]: 30.2 µM (inactive)
- IC50 [19]: 2.84 µM (active)
- IC50 [20]: 5.05 µM (active)
- IC50 [21]: > 100 µM (inactive)
- IC50 [22]: 22.7 µM (active)
- IC50 [23]: 7.91 µM (active)
- IC50 [24]: > 100 µM (inactive)

SMILES: CCOC(=O)N1CCC(Nc2ncnc3c2cnn3-c2ccc(C)cc2C)CC1
- IC50 [25]: 13.6 µM (inactive)
